Experimental data published in ChEMBL document CHEMBL1131533, “Development of a three-dimensional CysLT1 (LTD4) antagonist model with an incorporated amino acid residue from the receptor” (J Med Chem, 1998).
pIC50, pKi: −log10 of the molar value.

Target: T1, Cysteinyl leukotriene receptor 1 (Cavia porcellus, UniProt Q2NNR5)
T1 sequence (Q2NNR5 whole entry): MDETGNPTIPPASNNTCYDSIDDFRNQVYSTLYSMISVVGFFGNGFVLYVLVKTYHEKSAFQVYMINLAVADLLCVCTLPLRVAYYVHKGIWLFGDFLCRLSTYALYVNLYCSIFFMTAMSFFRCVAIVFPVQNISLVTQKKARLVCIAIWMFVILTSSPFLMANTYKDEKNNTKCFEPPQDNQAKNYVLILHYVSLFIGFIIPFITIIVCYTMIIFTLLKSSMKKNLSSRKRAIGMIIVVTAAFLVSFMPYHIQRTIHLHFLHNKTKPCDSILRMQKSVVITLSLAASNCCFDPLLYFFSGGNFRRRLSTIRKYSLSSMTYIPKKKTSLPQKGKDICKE
Assay: Binding affinity towards Cysteinyl leukotriene D4 receptor (cysLT1) was measured by the displacement of [3H]LTD4 radioligand

SMILES: CCC(CC)(CC(=O)Nc1cccc(/C=C/c2nc(C3CCC3)cs2)c1)C(=O)O
- pKi: 8.19

SMILES: O=C(O)c1cccc2c(=O)cc(-c3cccc(/C=C/c4ccc5ccccc5n4)c3)oc12
- pIC50: 7.77

SMILES: O=C(Nc1cccc2c(=O)cc(-c3nn[nH]n3)oc12)c1ccc(OCc2ccc3ccccc3n2)cc1
- pKi: 8.96

SMILES: O=c1cc(-c2nnn[nH]2)oc2cc(OCc3cccc(OCc4ccc5ccccc5n4)c3)ccc12
- pKi: 8.52

SMILES: O=c1cc(-c2nnn[nH]2)oc2cc(/C=C/c3cccc(OCc4ccc5ccccc5n4)c3)ccc12
- pKi: 8.60
